Assay results published in publication PMC8537897, “Design, Synthesis and Biological Evaluation of Aromatase Inhibitors Based on Sulfonates and Sulfonamides of Resveratrol” (Pharmaceuticals, 2021).
Like-named read-outs stand apart in the source and are kept apart here.

Tests used:
human aromatase = molecular target: T1, human aromatase (Homo sapiens, UniProt P11511); assay: Aromatase inhibition, fluorimetric assay kit (Aromatase-CYP19A Inhibitor Screening kit, BioVision); assay type: biochemical; settings: for Aromatase inhibition (in words): screening at 1 µM
T1 construct: purchased BioVision, Milpitas, CA, USA
T1 sequence (P11511 1-503): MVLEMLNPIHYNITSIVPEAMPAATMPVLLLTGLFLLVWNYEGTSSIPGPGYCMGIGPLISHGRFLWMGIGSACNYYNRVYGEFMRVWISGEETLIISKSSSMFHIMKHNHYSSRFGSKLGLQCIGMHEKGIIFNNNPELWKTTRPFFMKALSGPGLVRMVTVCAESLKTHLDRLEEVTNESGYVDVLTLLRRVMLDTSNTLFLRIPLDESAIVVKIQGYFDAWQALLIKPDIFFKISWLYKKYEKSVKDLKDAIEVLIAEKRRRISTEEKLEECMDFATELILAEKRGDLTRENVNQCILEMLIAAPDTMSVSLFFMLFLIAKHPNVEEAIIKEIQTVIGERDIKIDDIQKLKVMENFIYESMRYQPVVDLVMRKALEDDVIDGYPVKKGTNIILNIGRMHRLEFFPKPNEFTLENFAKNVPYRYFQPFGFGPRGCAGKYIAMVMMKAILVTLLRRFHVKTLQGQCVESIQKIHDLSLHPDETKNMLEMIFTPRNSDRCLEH
Method: The activity was measured each minute for 60 min and the value obtained for each compound after 10 min was chosen to calculate the percentage of the aromatase inhibition.
The aromatase inhibitory activity was determined using a commercial fluorimetric assay kit (Aromatase-CYP19A Inhibitor Screening kit, BioVision, Milpitas, CA, USA), as reported elsewhere. The assay utilizes a fluorogenic aromatase substrate that is converted into a highly fluorescent metabolite detected in the visible range (Ex/Em 488/527 nm). […] During the incubation, the Aromatase Substrate/NADP+ mixture was prepared, and the reaction was started by adding 30 µL of this solution to each well (aside from the background control), reaching a final reaction volume of 100 µL/well. The fluorescence emission (527 nm) was measured immediately (within 1 min) by means of a fluorometer equipped with a 488 nm filter (GloMax®-Multi Detection System, Promega, Madison, WI, USA) and afterwards monitored for 60 min. […] The assay was performed in the same experimental conditions used for the initial screening of compounds. Dose–response curves were fitted with GraphPad Prism 5.0 (GraphPad Software, San Diego, CA, USA).

[1] = test system: MCF7 breast cancer cell line; assay: Cell metabolic activity / viability (MTT assay) on MCF7; assay type: cell-based, human; settings: for IC50: Homo sapiens, MTT, tested 0 to 500 µM;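 on all read-outs here: MTT optical density read-out in human MCF7 cells, normalised to DMSO vehicle-treated cells as 100%, with IC50 derived from fitted concentration–response curves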
Method: Human skin fibroblasts (HFF-1, CVCL_3285) and human breast cancer MCF7 (HTB-22™, CVCL_0031) were purchased from ATCC and maintained in Dulbecco’s modified Eagle’s medium (DMEM) high glucose (EuroClone, Milan, Italy) supplemented with 10% of fetal bovine serum (FBS) and 1% of penicillin/streptomycin (Gibco—Thermo Fisher Scientific, MD, USA).
Cell metabolic activity of HFF-1 and MCF7 cells was assessed by MTT (3-(4,5-Dimethylthiazol-2-yl)-2,5-Diphenyltetrazolium Bromide) test (Sigma Aldrich, Milan, Italy). […] After the established exposure times, cells were incubated with MTT (0.5 mg/mL) and the optical density was measured as reported elsewhere [63]. Results were expressed as the percentage of cells in the presence of vehicle (DMSO) set as 100% and each experiment was performed in triplicate (n = 3). Concentration–response curves and IC50 were fitted and calculated with GraphPad Prism 5.0 (GraphPad Software, San Diego, CA, USA).

MCF7 cells = assay: Cytotoxicity test (lactate dehydrogenase release); assay type: cell-based, human; settings: MCF7, 0–250 µM, 24 h
Method: To assess whether the decrease in metabolic activity is a consequence of cytotoxic occurrence in the presence of compounds 1b, 1c, and 1j, lactate dehydrogenase (LDH) released from MCF7 was measured in response to loading concentrations of 0–250 µM after a 24 h exposure. […] It is, therefore, plausible to assume that all tested compounds exert their anti-proliferative effect on MCF7 cells through cytotoxic induction and 1c is the most promising compound, being active already at lower doses.
MCF7 cells were seeded and stimulated as previously described for the MTT test. After the exposure time, cell supernatants were collected, centrifuged at 450× g for 4 min, and stored on ice. In order to quantify the cytotoxicity of loading concentrations of compounds 1b, 1c, and 1j (0–250 µM), the CytoTox 96® Non-Radioactive Cytotoxicity Assay (Promega Corporation, Madison, WI, USA) was performed as previously reported. The results were normalized on MTT absorbances and expressed as fold increases on the LDH released by cultures in the presence of vehicle (DMSO) set as 1.

[2] = MCF7, 24 h, 24 h, read-out: MCF7 Cells IC50 24 h
[3] = MCF7, 72 h, 72 h, read-out: MCF7 Cells IC50 72 h

Cc1ccc(S(=O)(=O)Nc2ccc(/C=C/c3ccccc3)cc2)cc1 [2d, 4-Methyl-N-{4-[(E)-2-phenylvinyl]phenyl}benzenesulfonamide]
melting point: 182 to 183 °C

O=[N+]([O-])c1cccc(S(=O)(=O)Nc2ccc(/C=C/c3ccccc3)cc2)c1 [2b, 3-Nitro-N-{4-[(E)-2-phenylvinyl]phenyl}benzenesulfonamide]
inhibition at 1 µM (human aromatase): 67.3% | melting point: 210 to 211 °C

CC(=O)Nc1ccc(S(=O)(=O)Nc2ccc(/C=C/c3ccccc3)cc2)cc1 [2f, N-{4-[({4-[(E)-2-Phenylvinyl]phenyl}amino)sulfonyl]phenyl}acetamide]
melting point: 230 to 231 °C

COc1ccc(S(=O)(=O)Oc2ccc(/C=C/c3ccccc3)cc2)c(OC)c1 [1g, 4-[(E)-2-Phenylvinyl]phenyl 2,4-dimethoxybenzenesulfonate]
melting point: 141 to 142 °C

O=S(=O)(Oc1ccc(/C=C/c2ccccc2)cc1)c1ccc(Cl)s1 [1k, 4-[(E)-2-Phenylvinyl]phenyl 5-chlorothiophene-2-sulfonate]
inhibition at 1 µM (human aromatase): 60.3% | melting point: 160 to 162 °C

CCS(=O)(=O)Oc1ccc(/C=C/c2ccccc2)cc1 [1i, 4-[(E)-2-Phenylvinyl]phenyl ethanesulfonate]
inhibition at 1 µM (human aromatase): 100% | melting point: 112 to 114 °C

O=S(=O)(Nc1ccc(/C=C/c2ccccc2)cc1)c1ccccc1 [2a, N-{4-[(E)-2-Phenylvinyl]phenyl}benzenesulfonamide]
inhibition at 1 µM (human aromatase): 47.8% | melting point: 160 to 162 °C

CS(=O)(=O)Nc1ccc(/C=C/c2ccccc2)cc1 [2h, N-{4-[(E)-2-Phenylvinyl]phenyl}methanesulfonamide]
melting point: 250 to 251 °C

COc1ccc(S(=O)(=O)Nc2ccc(/C=C/c3ccccc3)cc2)c(OC)c1 [2g, 2,4-Dimethoxy-N-{4-[(E)-2-phenylvinyl]phenyl}benzenesulfonamide]
melting point: 213 to 215 °C

O=S(=O)(Nc1ccc(/C=C/c2ccccc2)cc1)c1ccc(Cl)s1 [2k, 5-Chloro-N-{4-[(E)-2-phenylvinyl]phenyl}thiophene-2-sulfonamide]
Aromatase inhibition (in words) (human aromatase): inactive | melting point: 200 to 202 °C

CCS(=O)(=O)Nc1ccc(/C=C/c2ccccc2)cc1 [2i, N-{4-[(E)-2-Phenylvinyl]phenyl}ethanesulfonamide]
melting point: 230 to 231 °C

N#Cc1ccc(S(=O)(=O)Nc2ccc(/C=C/c3ccccc3)cc2)cc1 [2e, 4-Cyano-N-{4-[(E)-2-phenylvinyl]phenyl}benzenesulfonamide]
melting point: 238 to 239 °C

N#Cc1ccc(S(=O)(=O)Oc2ccc(/C=C/c3ccccc3)cc2)cc1 [1e, 4-[(E)-2-Phenylvinyl]phenyl 4-cyanobenzenesulfonate]
inhibition at 1 µM (human aromatase): 56.1%

Oc1ccc(/C=C/c2cc(O)cc(O)c2)cc1 [RSV, trans-3,4′,5-trihydroxystilbene, reference compound]
IC50 [1, 2]: > 250 µM | IC50 [1, 3]: 83 ± 3.8 µM | Viability (% of control) - 24 h ([1]; MCF7, 10 µM, 24 h): 80.27 ± 3.18 % of control | Viability (% of control) - 72 h ([1]; MCF7, 10 µM, 72 h): 91.92 ± 5.44 % of control | Viability (% of control) - 24 h ([1]; MCF7, 25 µM, 24 h): 84.94 ± 6.59 % of control | Viability (% of control) - 72 h ([1]; MCF7, 25 µM, 72 h): 73.93 ± 9.52 % of control | Viability (% of control) - 24 h ([1]; MCF7, 50 µM, 24 h): 87.44 ± 1.93 % of control | Metabolically active cells ([1]; MCF7, 50 µM, 24 h, DMSO alone = 100%): slightly active at this concentration | Viability (% of control) - 72 h ([1]; MCF7, 50 µM, 72 h): 66.54 ± 5.77 % of control | Viability (% of control) - 24 h ([1]; MCF7, 100 µM, 24 h): 78.29 ± 4.03 % of control | Viability (% of control) - 72 h ([1]; MCF7, 100 µM, 72 h): 47.75 ± 2.67 % of control | Viability (% of control) - 24 h ([1]; MCF7, 250 µM, 24 h): 60.29 ± 0.93 % of control | Viability (% of control) - 72 h ([1]; MCF7, 250 µM, 72 h): 38.05 ± 8.70 % of control | Viability (% of control) - 24 h ([1]; MCF7, 500 µM, 24 h): 34.30 ± 5.01 % of control | Viability (% of control) - 72 h ([1]; MCF7, 500 µM, 72 h): 15.33 ± 4.88 % of control

O=[N+]([O-])c1cccc(S(=O)(=O)Oc2ccc(/C=C/c3ccccc3)cc2)c1 [1b, 4-[(E)-2-Phenylvinyl]phenyl 3-nitrobenzenesulfonate]
LDH release, dose dependence (in words) (MCF7 cells): raises only at the highest concentration administered (250 µM) | inhibition at 1 µM (human aromatase): 97% | IC50 (human aromatase; tested at concentrations from 0.01 to 100 μM, mean of triplicate determinations): 2.51 µM | IC50 [1, 2]: 159 ± 9.9 µM | IC50 [1, 3]: 240 ± 6.7 µM | Viability (% of control) - 24 h ([1]; MCF7, 10 µM, 24 h): 69.32 ± 14.99 % of control | Viability (% of control) - 72 h ([1]; MCF7, 10 µM, 72 h): 98.33 ± 5.24 % of control | Viability (% of control) - 24 h ([1]; MCF7, 25 µM, 24 h): 79.12 ± 9.66 % of control | Viability (% of control) - 72 h ([1]; MCF7, 25 µM, 72 h): 99.99 ± 9.30 % of control | Viability (% of control) - 24 h ([1]; MCF7, 50 µM, 24 h): 80.69 ± 4.08 % of control | Viability (% of control) - 72 h ([1]; MCF7, 50 µM, 72 h): 93.39 ± 5.39 % of control | Viability (% of control) - 24 h ([1]; MCF7, 100 µM, 24 h): 73.93 ± 1.87 % of control | Viability (% of control) - 72 h ([1]; MCF7, 100 µM, 72 h): 77.31 ± 7.02 % of control | Viability (% of control) - 24 h ([1]; MCF7, 250 µM, 24 h): 45.57 ± 3.42 % of control | Viability (% of control) - 72 h ([1]; MCF7, 250 µM, 72 h): 57.01 ± 1.01 % of control | Viability (% of control) - 24 h ([1]; MCF7, 500 µM, 24 h): 35.83 ± 2.22 % of control | Viability (% of control) - 72 h ([1]; MCF7, 500 µM, 72 h): 36.11 ± 0.35 % of control | melting point: 152 to 155 °C

Cc1ccc(S(=O)(=O)Nc2ccc(/C=C/c3ccccc3)cc2)cc1[N+](=O)[O-] [2c, 4-Methyl-3-nitro-N-{4-[(E)-2-phenylvinyl]phenyl}benzenesulfonamide]
inhibition at 1 µM (human aromatase): 44.8% | melting point: 246 to 247 °C

O=S(=O)(Oc1ccc(/C=C/c2ccccc2)cc1)c1ccccc1 [1a, 4-[(E)-2-Phenylvinyl]phenylbenzenesulfonate]
Aromatase inhibition (in words) (human aromatase): very low activity | melting point: 127 to 130 °C
